Measurements from article PMC11002876, “KcsA-Kv1.x chimeras with complete ligand-binding sites provide improved predictivity for screening selective Kv1.x blockers” (The Journal of Biological Chemistry, 2024).
Where a SMILES comes first, the peptide text is derived from it.

Experiments:
human Kv1.2 = conditions: cited from earlier work; for IC50: human Kv1.2 channel blocking, patch-clamp, read-out: IC50, Kv1.x blocking (Kv1.2)
Description: Elution was done at 1 ml/min flow rate. Eluted peak fractions (1 ml) were analyzed by SDS-PAGE, then pooled and concentrated. The concentration of the purified protein was determined by measuring the UV absorbance at 280 nm using the protein extinction coefficient calculator in the ProtParam tool of Ex ...

[1] = molecular target: T1, KcsA-Kv1.2 T-only chimera (Streptomyces lividans, UniProt P0A334, R52A/G53D/A54E/P55R/G56E/A57S/L59F/I60P/T61S/Y62I/R64D); test: Phage ELISA-binding assay, KcsA-Kv1.2 T-only; design: species or system human Kv1.2 turret in Streptomyces lividans KcsA; conditions: toxin displayed on M13 phage, Fig. 7C
T1 sequence (P0A334 1-160 R52A/G53D/A54E/P55R/G56E/A57S/L59F/I60P/T61S/Y62I/R64D): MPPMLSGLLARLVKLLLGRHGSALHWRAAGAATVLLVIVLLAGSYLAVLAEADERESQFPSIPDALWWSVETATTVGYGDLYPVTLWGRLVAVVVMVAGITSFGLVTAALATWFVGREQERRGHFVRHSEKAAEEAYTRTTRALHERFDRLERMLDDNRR
Description: Phage display test solutions were prepared according to routine phage display protocols ([62]). Phosphorylated and annealed oligonucleotides encoding the peptide construct were ligated into linearized pAS62 phagemid vector (https://patents.google.com/patent/WO2022144560A1/en) at a vector/insert ratio of 1:3. The final phagemid construct harbored a signal sequence followed by the peptide of interest, a linker sequence ([…]), and the C-terminal part of the P3 coat protein (amino acids: 216-424 of NP_510891.1). Chemically competent XL1-Blue E. coli cells (2022249, Agilent) were transformed with the ligation product and then streaked onto ampicillin (100 μg/ml) containing LB/Amp plates and incubated for 16 h at 37 °C. A few clones were sequenced, and a single colony with confirmed target sequence was inoculated into 3 ml 2 YT medium supplemented with 100 μg/ml ampicillin and incubated at 37 °C until the culture reached midlog phase. The culture was infected with M13KO7 helper phage (N0315S, New England Biolabs) (phage/cell ratio 10:1) and was incubated for 30 min at 37 °C. The 3 ml culture was transferred into 200 ml 2YT medium, supplemented with 100 μg/ml ampicillin and 25 μg/ml kanamycin, and incubated overnight at 37 °C. The overnight cell culture (200 ml) was pelleted by centrifugation at 8000g for 10 min in 400 ml centrifuge tubes at 4 °C. […] The particle concentrations of phage solutions were determined using a NanoDrop One C (Thermo Fisher Scientific) spectrophotometer. The phage particle concentration was assessed according to the formula: (A268–A320) × 5 × 10^12 particles/ml ([62]). […]
Phage stock solutions were diluted to working concentration with phage resuspension buffer supplemented with 2 mM DDM. […] Following blocking, the wells were washed 4× with washing buffer (300 μl TBS-Tween, 0.1% v/v) using a Wellwash Versa microplate washer (Thermo Fisher Scientific); then 50 μl phage solution (in TBS-BSA-Tween, 0.1% v/v, 2 mM DDM) at determined phage concentration was added to the wells and incubated for 1 h at room temperature on a horizontal shaker. […]

Compound: CC[C@H](C)[C@@H]1NC(=O)CNC(=O)[C@H](Cc2ccccc2)NC(=O)[C@H](CCC(N)=O)NC(=O)[C@H](C)NC(=O)[C@H](CCCCN)NC(=O)[C@@H]2CSSC[C@@H](C(=O)N[C@@H](Cc3ccc(O)cc3)C(=O)N3CCC[C@H]3C(=O)N[C@@H](Cc3c[nH]cn3)C(=O)O)NC(=O)[C@H](CCCCN)NC(=O)[C@@H]3CSSC[C@H](NC(=O)[C@H](CCC(N)=O)NC(=O)[C@H](CCCCN)NC(=O)[C@@H]4CCCN4C(=O)[C@H](CO)NC(=O)[C@H]([C@@H](C)O)NC(=O)[C@@H](NC(=O)[C@H](CCCCN)NC(=O)[C@@H](NC(=O)[C@H](CC(=O)O)NC(=O)[C@@H](NC(=O)[C@@H](NC(=O)[C@@H](N)[C@@H](C)O)C(C)C)[C@@H](C)CC)C(C)C)CSSC[C@H](NC(=O)[C@H](CCCCN)NC(=O)[C@H](C)NC(=O)CNC(=O)[C@H](C)NC(=O)[C@H](CCCNC(=N)N)NC1=O)C(=O)N[C@@H](CCSC)C(=O)N[C@@H](CC(N)=O)C(=O)NCC(=O)N[C@@H](CCCCN)C(=O)N3)C(=O)N[C@@H](CC(C)C)C(=O)N1CCC[C@H]1C(=O)N1CCC[C@H]1C(=O)N2 [HgTx1, Hongotoxin-1] (HELM PEPTIDE1{T.V.I.D.V.K.C.T.S.P.K.Q.C.L.P.P.C.K.A.Q.F.G.I.R.A.G.A.K.C.M.N.G.K.C.K.C.Y.P.H}$PEPTIDE1,PEPTIDE1,7:R3-29:R3|PEPTIDE1,PEPTIDE1,13:R3-34:R3|PEPTIDE1,PEPTIDE1,17:R3-36:R3$$$V2.0; N-terminus and C-terminus assumed)
- inhibition of Kv1.2, in words (human Kv1.2): equivalent high potency

Compound: CC[C@H](C)[C@H](NC(=O)[C@H](CCC(=O)O)NC(=O)[C@@H](NC(=O)CN)C(C)C)C(=O)N[C@@H](CC(N)=O)C(=O)N[C@H](C(=O)N[C@@H](CCCCN)C(=O)N[C@H]1CSSC[C@@H]2NC(=O)[C@H](CCCCN)NC(=O)CNC(=O)[C@H](Cc3ccccc3)NC(=O)[C@H](CCCNC(=N)N)NC(=O)[C@H](CCSC)NC(=O)CNC(=O)[C@H](C)NC(=O)[C@H](CC(=O)O)NC(=O)[C@H](CCCCN)NC(=O)[C@@H]3CSSC[C@@H](C(=O)N[C@H](C(=O)N4CCC[C@H]4C(=O)N[C@@H](CCCCN)C(=O)O)[C@@H](C)O)NC(=O)[C@H](Cc4c[nH]cn4)NC(=O)[C@H](CSSC[C@H](NC(=O)[C@H](CCC(N)=O)NC(=O)[C@@H]4CCCN4C(=O)[C@H](CO)NC(=O)CNC(=O)[C@H](CO)NC1=O)C(=O)N[C@@H](CC(C)C)C(=O)N[C@@H](CCCCN)C(=O)N1CCC[C@H]1C(=O)N3)NC(=O)[C@H](CCCCN)NC(=O)[C@H](CCCNC(=N)N)NC(=O)[C@H](CC(N)=O)NC(=O)[C@H](CCSC)NC2=O)C(C)C [KTX1, Kaliotoxin-1]
- phage binding to KcsA-Kv1.2 T-only, in words [1]: inconsistent with their published channel blocking potencies
- IC50 (human Kv1.2): > 1000 nM

Compound: CC[C@H](C)[C@@H]1NC(=O)[C@@H]2CSSC[C@H](NC(=O)[C@H](CO)NC(=O)[C@@H](N)C(C)C)C(=O)N[C@@H]([C@@H](C)O)C(=O)NCC(=O)N[C@@H](CO)C(=O)N[C@@H](CCCCN)C(=O)N[C@@H](CC(=O)O)C(=O)N[C@@H](CSSC[C@@H](C(=O)N[C@@H](CCCCN)C(=O)N[C@H]3CSSC[C@@H](C(N)=O)NC(=O)CNC(=O)[C@H](Cc4ccc(O)cc4)NC3=O)NC(=O)[C@H](CO)NC(=O)[C@H](CCCCN)NC(=O)[C@H](CC(N)=O)NC1=O)C(=O)N[C@@H](Cc1ccc(O)cc1)C(=O)N[C@@H](C)C(=O)N1CCC[C@H]1C(=O)N[C@H]1CSSC[C@H](NC(=O)CNC(=O)[C@H]([C@@H](C)O)NC(=O)[C@H](CCC(N)=O)NC(=O)[C@H](CCCCN)NC(=O)[C@H](CCCNC(=N)N)NC1=O)C(=O)N1CCC[C@H]1C(=O)N[C@@H](CC(N)=O)C(=O)N[C@@H](C)C(=O)N[C@@H](CCCCN)C(=O)N2 [MTX, Maurotoxin] (HELM PEPTIDE1{V.S.C.T.G.S.K.D.C.Y.A.P.C.R.K.Q.T.G.C.P.N.A.K.C.I.N.K.S.C.K.C.Y.G.C.[am]}$PEPTIDE1,PEPTIDE1,3:R3-24:R3|PEPTIDE1,PEPTIDE1,9:R3-29:R3|PEPTIDE1,PEPTIDE1,13:R3-19:R3|PEPTIDE1,PEPTIDE1,31:R3-34:R3$$$V2.0; N-terminus and C-terminus assumed)
- phage binding to KcsA-Kv1.2 T-only, in words [1]: negligible binding
- block of native Kv1.2, in words (human Kv1.2): potent blocker
- IC50 (human Kv1.2): 0.8 nM

Compound: CC[C@H](C)[C@@H]1NC(=O)[C@@H](NC(=O)[C@H](CO)NC(=O)[C@@H](N)CCCNC(=N)N)CSSC[C@@H](C(=O)O)NC(=O)[C@H]([C@@H](C)O)NC(=O)CNC(=O)[C@@H]2CSSC[C@@H]3NC(=O)[C@H](CCC(N)=O)NC(=O)[C@H](Cc4ccccc4)NC(=O)[C@H](C)NC(=O)[C@H]([C@@H](C)O)NC(=O)[C@H](CSSC[C@H](NC(=O)[C@H](Cc4ccccc4)NC(=O)[C@H](CO)NC(=O)[C@H](CC(C)C)NC(=O)[C@H](CCCNC(=N)N)NC(=O)[C@H](Cc4ccc(O)cc4)NC(=O)[C@H](CCCCN)NC(=O)[C@H](CCSC)NC(=O)[C@H](CO)NC(=O)[C@H](Cc4c[nH]cn4)NC(=O)[C@H](CCCCN)NC3=O)C(=O)N[C@@H](CCCNC(=N)N)C(=O)N[C@@H](CCCCN)C(=O)N[C@@H]([C@@H](C)O)C(=O)N2)NC(=O)[C@H](CCCNC(=N)N)NC(=O)[C@H](CO)NC(=O)[C@H](CCCCN)NC(=O)[C@@H]2CCCN2C(=O)[C@H]([C@@H](C)CC)NC(=O)[C@H]([C@@H](C)O)NC(=O)[C@H](CC(=O)O)NC1=O [ShK, Stichodactyla toxin]
- phage binding to KcsA-Kv1.2 T-only, in words [1]: inconsistent with their published channel blocking potencies
- IC50 (human Kv1.2): 9 nM
